Test results published in the Deep4Chem optical property database.
One block for each compound: values may come before it.

Assay: solvent given as SMILES

SMILES: CC(=O)c1nc(-c2ccc(C)cc2)oc1C
absorption maximum (in CC#N): 271 nm
absorption maximum (in CCCCCC): 272 nm
absorption maximum (in CCO): 271 nm
absorption maximum (in CCOC(C)=O): 273 nm
absorption maximum (in CCOCC): 271 nm
absorption maximum (in ClCCl): 271 nm

SMILES: O=c1oc2ccc(Br)cc2cc1-c1cc2cc(Br)ccc2o1
absorption maximum (in CC#N): 370 nm
absorption maximum (in CCOC(C)=O): 371 nm
absorption maximum (in CS(C)=O): 374 nm
absorption maximum (in Cc1ccccc1): 377 nm
absorption maximum (in O): 331 nm

SMILES: O=C1O[B-]2(OC1=O)OC(c1ccccc1)=CC(c1ccc3ccccc3c1)=[O+]2
absorption maximum (in CC#N): 435 nm
absorption maximum (in ClC(Cl)(Cl)Cl): 435 nm

SMILES: CCCCCCCCOc1ccc(-c2c3c4n(c(-c5ccc(OCCCCCCCC)cc5)c3c3n2[B-](F)(F)[n+]2ccccc2N=3)[B-](F)(F)[n+]2ccccc2N=4)cc1
absorption maximum (in ClC(Cl)Cl): 638 nm

SMILES: Cc1cccc(NC(=O)c2ccc(N(C)C)cc2)c1
absorption maximum (in C1CCCCC1): 306 nm
absorption maximum (in C1CCOC1): 311 nm
absorption maximum (in CC#N): 314 nm
absorption maximum (in CCOCC): 306 nm

SMILES: CC1(C)c2ccccc2N(c2ccc(-c3nc(-c4ccccn4)n(-c4ccc(N5c6ccccc6C(C)(C)c6ccccc65)cc4)n3)cc2)c2ccccc21
absorption maximum (in ClCCl): 375 nm

SMILES: CN(C)c1ccc(-c2nc(C#N)c(C#N)n2C)cc1
absorption maximum (in C1CCCCC1): 323 nm
absorption maximum (in CC#N): 313 nm
absorption maximum (in CO): 309 nm
absorption maximum (in ClC(Cl)Cl): 326 nm

SMILES: Cn1cccc1-c1ccc(C#N)cc1
absorption maximum (in C1CCOC1): 326 nm
absorption maximum (in CC#N): 322 nm
absorption maximum (in CCCCCC): 317 nm
absorption maximum (in CCCCOCCCC): 321 nm
absorption maximum (in CCOCC): 321 nm

SMILES: COC(=O)c1cc(=O)n(C)c2cc(-c3ccccc3)sc12
absorption maximum (in CC#N): 392 nm
absorption maximum (in ClCCl): 394 nm

SMILES: c1csc(-c2ccc3c4ccc(-c5cccs5)cc4n(-c4cccs4)c3c2)c1
absorption maximum (in ClCCl): 352 nm

SMILES: CC1CC=C(c2ccc(-c3cccs3)s2)CC1 (centres undefined)
absorption maximum (in C1CCOC1): 341 nm
absorption maximum (in CC#N): 341 nm
absorption maximum (in CCCCCC): 341 nm
absorption maximum (in CCO): 336 nm
absorption maximum (in OCCOCCO): 341 nm
absorption maximum (in c1ccncc1): 343 nm

SMILES: C[n+]1ccc(-c2cc[n+](C)cc2)cc1
absorption maximum (in CC#N): 260 nm

SMILES: CN(C)c1ccc(/C=C/C=C2\CC/C(=C\c3ccc(N(C)C)cc3)C2=O)cc1
absorption maximum (in C1CCOC1): 479 nm
absorption maximum (in CC#N): 478 nm
absorption maximum (in CC(C)=O): 474 nm
absorption maximum (in CC(C)O): 493 nm
absorption maximum (in CCCCCC): 435 nm
absorption maximum (in CCCCO): 499 nm
absorption maximum (in CCCCOC(C)=O): 468 nm
absorption maximum (in CCCO): 499 nm
absorption maximum (in CCO): 498 nm
absorption maximum (in CCOC(=O)c1ccccc1): 481 nm
absorption maximum (in CCOC(C)=O): 464 nm
absorption maximum (in CCOCC): 448 nm
absorption maximum (in CN(C)C=O): 486 nm
absorption maximum (in CO): 500 nm
absorption maximum (in CS(C)=O): 496 nm
absorption maximum (in Cc1ccccc1): 475 nm
absorption maximum (in ClC(Cl)(Cl)Cl): 449 nm
absorption maximum (in ClC(Cl)Cl): 486 nm
absorption maximum (in ClCCl): 484 nm
absorption maximum (in Clc1ccccc1Cl): 488 nm
absorption maximum (in S=C=S): 489 nm
absorption maximum (in c1ccccc1): 475 nm
absorption maximum (in c1ccncc1): 488 nm

The next lines start with the values.

absorption maximum (in C1CCCCC1): 449 nm
SMILES: c1ccc(-c2cc3cccc[n+]3[b-]3c(-c4cccc5[b-]4[n+]4ccccc4cc5-c4ccccc4)cccc32)cc1

absorption maximum (in C1CCOC1): 438 nm
SMILES: C1=C(c2ccccc2)C=C(c2ccccc2)/C1=C/c1ccccc1

absorption maximum (in ClCCl): 434 nm
SMILES: COc1ccc(N(c2ccc(OC)cc2)c2cc(N(c3ccc(OC)cc3)c3ccc(OC)cc3)c3ccc4cc(C(C)(C)C)cc5ccc2c3c54)cc1

absorption maximum (in ClCCl): 375 nm
SMILES: CCOC(=O)c1ccc(C2CC(c3cccc4ccccc34)=NN2c2ccc(F)cc2)cc1 (centres undefined)

absorption maximum (in ClC(Cl)Cl): 506 nm
SMILES: CC1=CC(C)=[N+]2C1=C(c1ccc(I)cc1)c1c(C)cc(C)n1[B-]21Oc2ccc3ccccc3c2-c2c(ccc3ccccc23)O1

absorption maximum (in CO): 284 nm
SMILES: Cc1ccc(-c2nc(-c3cc([N+](=O)[O-])ccc3O)[nH]c2-c2ccc(C)cc2)cc1

absorption maximum (in CC#N): 367 nm
absorption maximum (in CCCCCC): 344 nm
absorption maximum (in CO): 365 nm
absorption maximum (in ClC(Cl)Cl): 351 nm
SMILES: c1cc2ccc3cccc4c(-c5cc(-c6nccs6)nc(-c6nccs6)c5)cc(c1)c2c34

absorption maximum (in ClCCl): 528 nm
SMILES: CCCCCCCCCCC1(CCCCCCCCCC)c2cc(-c3nc4ccccc4s3)ccc2-c2ccc(N3C(=O)c4ccc5c6ccc7c8c(ccc(c9ccc(c4c59)C3=O)c86)C(=O)N(c3ccc4c(c3)C(CCCCCCCCCC)(CCCCCCCCCC)c3cc(-c5nc6ccccc6s5)ccc3-4)C7=O)cc21

absorption maximum (in ClCCl): 435 nm
SMILES: Cc1ccc(C2=Nc3cccc4[n+]3[B-](c3ccccc3)(N2)NC(c2ccc(C)cc2)=N4)cc1

absorption maximum (in C1CCOC1): 497 nm
SMILES: CCOC(=O)c1ccc(C2=CC3=c4cc(-c5ccc(C(=O)OCC)cc5)c5nc(C(F)(F)C(F)(F)C(F)(F)F)nc6c(-c7ccc(C(=O)OCC)cc7)cc(c4c65)C4=CC(c5ccc(C(=O)OCC)cc5)=C5N=C(C(F)(F)C(F)(F)C(F)(F)F)N=C2C5C43)cc1 (centres undefined)
